How the values were obtained:
[1] = biological target: T1, AICARFT (Homo sapiens, UniProt P31939); test: MS detection of ZMP in low folate media cultured NCI-H460 cells; format: cell-based; parameters: endogenous in cells; host or cells: NCI-H460; conditions: low levels of folate in the media; summary of Table 16
Description: Grow NCI-H460 cells in complete high folate RPMI media (ATCC #30-2001) until cellular confluence reaches ˜80%. Wash cells with PBS, trypsinize, resuspend cells in complete low folate RPMI media (Gibco #27016-021) and perform a cell count. Transfer 1.25×10^6 cells to a T225 flask containing complete low folate RPMI media (40 mL). Grow for seven days. Split cells again with complete low folate media if confluence surpasses 80%. Wash cells with PBS, trypsinize, resuspend cells in complete low folate RPMI media, and perform a cell count. Aliquot 10×10^6 cells in complete low folate media (1 mL)+5% DMSO per cryovial. Use a cell freezing apparatus to freeze cells in a slow and controlled manner in a −80° C. freezer. The next day, transfer cells to liquid nitrogen for long term storage. Thaw frozen cells from cryovial in 37° C. water bath, wash cells once with low folate assay medium: folate free RPMI 1640 medium (Gibco, #27016-021), Glucose (Sigma, #G5767), Hepes (Hyclone, #SH30237.01), Na Pyruvate (Hyclone, #Sh30239.01), 10% FBS (Hyclone, #SH30070.03). Adjust cells concentration to 250,000 cells/mL with medium, plate cells by adding 100 μl/well (25,000 cells/well) into Biocoat poly-D-lysine 96-well plate (BD, #35-4640), and incubate at 37° C. overnight with 5% CO2. Treat cells with 20 μl/well compound diluted in media containing 3% DMSO. Incubate at 37° C. for 16 hours with 5% CO2, then remove the medium and add 1× SureFire Lysis Buffer (50 μL) (PerkinElem, SureFire® Kit component) to each well and incubate at room temperature for 10 min with gentle shaking.
Cells grown in a 96-well plate have the media removed and are lysed in AlphaScreen® SureFire® lysis buffer. Standard curves containing ZMP, dUMP and AICAr at concentrations of 5-10,000 ng/mL are prepared in 40 mM ammonium acetate, pH 4. Aliquots (40 μL) of each standard or sample are combined in a deep 96-well plate with 160 μL of internal standard solution containing ^13C5-ZMP (custom synthesis) and ^13C5-AICAr (custom synthesis) at 100 ng/mL in 40 mM ammonium acetate, pH 4. A Beckman Biomek FX liquid handler is used to add 400 μL of DCM to each sample. Samples are sealed, vortexed for 5 minutes, and placed in the refrigerator for at least 30 minutes. The samples are centrifuged for 10 minutes at 4,000 rpm and 4° C. using an Eppendorf 5810R centrifuge, and the Biomek liquid handler is used to transfer 75 μL of the aqueous layer into a clean 96-well plate. The plates are sealed prior to analysis.
The LC-MS method utilizes a Shimadzu Prominence 20A HPLC system connected to an AB Sciex 5500™ or an AB Sciex 6500™ triple quadrupole mass spectrometer running Analyst® 2.1 software. Extracted samples are separated using a Thermo Hypercarb™ Javelin guard column (2.1×20 mm, […]) with an injection volume of 15 μL and a flow rate of 1 mL/minute. Mobile phase A is a 95:5 mixture of 50 mM ammonium formate, pH 4 and ACN. Mobile phase B is a 70:30 mixture of ACN and MeOH spiked with 0.3% formic acid and 2% concentrated ammonium hydroxide solution (v/v). The gradient is as follows: 0 minutes, 0% B; 0.25 minutes, 0% B; 2.00 minutes, 30% B; 2.01 minutes, 95% B; 3.50 minutes, 95% B, 3.51 minutes, 0% B, 5.00 minutes, stop.
The mass spectrometer is operated in positive ion TurboIonSpray® multiple reaction monitoring mode with a source temperature of 700° C. The precursor and fragment ions for each analyte are: ZMP (339→110), ^13C5-ZMP (344→110), dUMP (309→81), AICAr (259→127) and ^13C5-AICAr (264→127). Calibration curves are constructed by plotting analyte concentrations vs. analyte/internal standard peak area ratios and performing a linear fit of the data using a 1/concentration weighting with AB Sciex MultiQuant™ 2.1 software. Back-calculated ZMP concentrations are fit to a four-parameter logistic equation using ACTIVITYBASE 4.0 to determine IC50 values.

[2] = biological target: T1, AICARFT; test: AICARFT enzyme assay (LC-MS of IMP and ZMP); format: biochemical; parameters: made in house; host or cells: E. coli BL21(DE3); conditions: summary of Table 15
Description: Human AICARFT (NCBI accession number: NM_004044.6) cDNA is purchased from Openbiosystem Co. (Cat# MHS1011-62310, Clone ID: 4300570, accession: BC008879). The nucleotide sequence encoding full-length human AICARFT is inserted into pET21d (Novagen) vector with an N-terminal HIS tag. Bacterial BL21(DE3) (Novagen) is used as an expression host, and the induction of protein expression is carried out in 2×TY media with 1 mM IPTG at 18° C. overnight. Cell pellets are stored at −80° C. for subsequent protein purification. Protein purification is conducted at 4° C. Frozen cell pellets are lysed by incubation with stirring in 50 mL cold lysis buffer (50 mM Tris-HCl, pH 7.5, 300 mM NaCl, 10% glycerol, 0.1% Triton X-100, 0.5 mg/mL lysozyme, 5 U/mL benzonase, 1 mM DTT, 10 mM imidazole, and Roche complete EDTA-free protease inhibitor) per liter cell pellet and sonication. Cell lysates are clarified by centrifugation in a Bechman JA-18 rotor for 45 min at 16,500 rpm. The supernatant is incubated with Ni-NTA agarose resin (Qiagen) for 3 hours, followed by an initial batch wash with 10 resin volume of buffer A (50 mM Tris-HCl, pH 7.5, 300 mM NaCl, 10% glycerol, 1 mM DTT, 10 mM imidazole) containing 0.1% Triton X-100. The resin is then packed onto a column and washed with buffer A. The HIS-tagged AICARFT protein is eluted with 10-500 mM imidazole gradient in buffer A. Pooled HIS-AICARFT containing fractions are concentrated, loaded onto a HiLoad 26/600 Superdex 200 column (GE Healthcare Biosciences), and eluted with storage buffer (50 mM Tris-HCl, pH7.5, 150 mM NaCl, 1 mM DTT, 10% Glycerol). Fractions containing HIS-AICARFT are pooled and protein concentration determined by the Bradford assay using BSA as standard. The protein is aliquoted and stored at −80° C.
One of the substrates of the enzyme reaction, 10-formyltetrahydrofolate (10-F-THFA), has limited chemical stability and is therefore synthesized on the same day that the ATIC enzyme assay is performed. The general synthetic route is described in P. Rowe, Methods Enzymol., 18, 733-735, (1971) and J. Rabinowitz, Methods Enzymol., 6, 814-815, (1963). The first step in this synthesis is the conversion of folinic acid (Sigma CAS 1492-18-8) to 5,10-methenyltetrahydrofolic acid (5,10-M-THFA). This conversion typically takes place the day before the enzyme assay is performed, but can be performed up to 1 week earlier and stored at room temperature. To folinic acid (81.6 mg) is added β-mercaptoethanol (2 mL), and 37% concentrated HCl (80 μL), is added. This reaction incubates a minimum of 3 hours at room temperature, with occasional mixing. The color changes from clear to yellow visually, and the complete conversion of folinic acid to 5,10-M-THFA is monitored by spectral analysis using a quartz cuvette. The UV absorption will change from 266 nm to 356 nm during this step. […] On the morning of the assay, the 80 mM 5,10-M-THFA is diluted to 1.6 mM in 40 μM ammonium bicarbonate (made fresh that day). This reaction incubates 3-5 hours at room temperature. The color changes from yellow to clear visually, and the conversion of 5,10-M-THFA to 10-F-THFA is monitored by spectral analysis using a quartz cuvette. The UV absorption will change from 356 nm to 258 nm during this step. […] Test compounds are prepared in DMSO to make a 10 mM stock solution. The stock solution is serially diluted 3-fold in DMSO to obtain a ten-point dilution curve with final compound concentrations ranging from 100 μM to 5 nM. The final DMSO concentration in the assay is 5%.
To each well of a 384-well polypropylene assay plate (NUNC 264573), […] of DMSO (control wells) or compound in DMSO and 9 μL of 55.56 μM ZMP (Sigma-Aldrich CAS 3031-94-5) in water are added. Then, 10 μL of 200 μM 10-F-THFA and 6 nM ATIC enzyme in 40 μM ammonium bicarbonate is added. […] The assay is incubated for 1 hour at room temperature, after which 40 μL of ACN is added to stop the reaction.

T1 sequence (P31939 whole entry): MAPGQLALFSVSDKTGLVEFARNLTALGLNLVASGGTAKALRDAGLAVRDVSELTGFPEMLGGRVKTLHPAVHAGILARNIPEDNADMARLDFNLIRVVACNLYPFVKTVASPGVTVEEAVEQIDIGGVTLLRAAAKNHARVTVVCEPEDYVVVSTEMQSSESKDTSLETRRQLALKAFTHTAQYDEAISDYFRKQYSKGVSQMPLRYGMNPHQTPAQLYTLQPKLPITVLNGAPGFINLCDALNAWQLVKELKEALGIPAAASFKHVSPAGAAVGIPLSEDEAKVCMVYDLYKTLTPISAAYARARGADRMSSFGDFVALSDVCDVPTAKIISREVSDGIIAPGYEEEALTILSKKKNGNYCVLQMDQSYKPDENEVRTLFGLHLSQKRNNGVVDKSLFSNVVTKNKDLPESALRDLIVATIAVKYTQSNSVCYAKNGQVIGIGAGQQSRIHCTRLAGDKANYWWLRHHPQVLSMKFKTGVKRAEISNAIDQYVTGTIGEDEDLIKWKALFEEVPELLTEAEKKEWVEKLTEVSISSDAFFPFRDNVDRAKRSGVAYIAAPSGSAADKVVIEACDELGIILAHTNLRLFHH

AICARFT inhibition in low folate media assay (in words) [1]: still inhibit AICARFT | AICARFT inhibition in enzyme assay (in words) [2]: inhibit AICARFT
Structure (SMILES): O=c1[nH]ccc2cc(F)c(NS(=O)(=O)c3ccc(N4CC[C@H](O)C4)s3)cc12 [Example 8, N-(6-Fluoro-1-oxo-1,2-dihydroisoquinolin-7-yl)-5-[(3S)-3-hydroxypyrrolidin-1-yl]thiophene-2-sulfonamide]
